The structures appear in SMILES notation.

One series concerns angiotensin II.
Experiment: not given
Conditions: background statement; cited from earlier work.
`CNCC(=O)N[C@@H](CCCN=C(N)N)C(=O)N[C@H](C(=O)N[C@@H](Cc1ccc(O)cc1)C(=O)N[C@H](C(=O)N[C@@H](Cc1cnc[nH]1)C(=O)N1CCC[C@H]1C(=O)N[C@@H](C)C(=O)O)C(C)C)C(C)C` [saralasin, [Sar^1,Ala^8] angiotensin II]: the “antagonist of the actions of angiotensin II” value is recorded as “potent antagonist of the actions of angiotensin II”.

In another series the test system is angiotensin receptor.
Experiment: not given
Conditions: in vivo; cited from earlier work.
For the molecule `CNCC(=O)N[C@@H](CCCN=C(N)N)C(=O)N[C@H](C(=O)N[C@@H](Cc1ccc(O)cc1)C(=O)N[C@H](C(=O)N[C@@H](Cc1cnc[nH]1)C(=O)N1CCC[C@H]1C(=O)N[C@@H](C)C(=O)O)C(C)C)C(C)C` [saralasin, [Sar^1,Ala^8] angiotensin II], the “blood pressure after intravenous administration” value is reported as “initial increase in blood pressure after intravenous administration”.

The target in another series is T1, angiotensin II receptor (Oryctolagus cuniculus, UniProt P34976).
T1 construct: Main abdominal aortas were removed and placed in Krebs-Henseleit buffer at room temperature; from tissue; host or cells: main abdominal aorta rings (3 mm) of female New Zealand White rabbits
T1 sequence (P34976 1-359): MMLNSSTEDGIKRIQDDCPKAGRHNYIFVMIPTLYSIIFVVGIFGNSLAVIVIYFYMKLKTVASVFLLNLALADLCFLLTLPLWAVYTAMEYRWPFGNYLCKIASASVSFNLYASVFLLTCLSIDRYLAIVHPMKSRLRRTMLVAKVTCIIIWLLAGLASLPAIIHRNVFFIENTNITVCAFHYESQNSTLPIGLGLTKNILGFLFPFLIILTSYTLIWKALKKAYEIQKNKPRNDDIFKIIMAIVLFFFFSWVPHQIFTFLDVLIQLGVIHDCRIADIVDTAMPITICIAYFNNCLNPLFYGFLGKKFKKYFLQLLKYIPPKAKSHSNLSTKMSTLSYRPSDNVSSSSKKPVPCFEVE
Briefly: Antagonism of contraction of rabbit aorta (angiotensin II functional assay, isolated rabbit aorta, pA2). Conditions: angiotensin II as agonist, 30 minutes incubation with antagonist, Schild analysis, negative logarithm of [A]2. More on the design: species or system rabbit (female New Zealand White). From the text: ANGIOTENSIN II FUNCTIONAL ASSAY: Antagonism of Contraction of Rabbit Aorta
The protocol reported by A. T Chiu and P. Timmermans (P. C. Wong, et al. Hypertension, 13, 489-497 (1989)) was followed with a few modifications. Female New Zealand White rabbits weighing 2-5 kg were sedated with carbon dioxide and then sacrificed. Main abdominal aortas were removed and placed in Krebs-Henseleit buffer at room temperature. […]
______________________________________
Buffer Component mM Concentration
potassium dihydrogen phosphate
sodium bicarbonate 20.00
EDTA* disodium calcium salt
*EDTA = ethylenediamine tetraacetic acid
The buffer contained no cocaine, propanolol or steroid.
The pH of the buffer was 7.40 at 37° C. when saturated with 5%
carbon dioxide/95% oxygen.
The tissues were cleaned of extraneous connective tissue, cut into 3 mm rings, and suspended within a 10 mL tissue bath. All dilutions of peptide preparations were made with 0.3% aqueous BSA. The tissues were primed with 55 mM potassium chloride. Tissues were pre-loaded with 1 g of tension. Tension was recorded on a model 7 Grass polygraph using FT03 transducers. At the end of the equilibrium period, a control cumulative concentration-contractile response curve for angiotensin II (A II: 1×10^-10 -10^-8 M) was obtained. The tissue was washed several times until the baseline was reached. Forty five minutes later, test compound (antagonist) was added and the tissue was incubated for 30 minutes. The concentration-response curve for A II was then repeated in the presence of the test compound. One dose of antagonist was tested per tissue only. For single dose shift experiments a dose of 1 mM of test compound was used, for a full pA2 experiment multiple doses were used depending upon the potency of the antagonist.
All responses to the control agonist were calculated as a percentage of the maximum response. These points in duplicate were plotted and analyzed according to standard Schild analysis (H. O. Schild, British J Pharmacology and Chemotherapy, 2, 189-206 (1947). The pA2 values calculated for the compounds of the invention are shown in Table 6. The pA2 value is the negative logarithm of the [A]2 value. [A]2 is the concentration of antagonist which necessitates doubling the agonist concentration in order to achieve the agonist effect which was measured in the absence of antagonist.
The pA2 value, therefore, is a measure of the effectiveness of the compound as an antagonist.
Take `CCCCN(Cc1ccc(-c2ccccc2-c2nn[nH]n2)cc1)c1ncc(C(=O)O)s1` [Example 27, 2-{N-Butyl-N-[(2'-[1H-tetrazol-5-yl]biphenyl-4-yl)methyl]amino}thiazole-5-carboxylic acid]: the Kb is 1.66 nM. On the same count and under the same terms, for `CCCN(Cc1ccc(-c2ccccc2-c2nn[nH]n2)cc1)c1ncc(C(=O)O)s1` [Example 28, 2-{N-Propyl-N-[(2'-[1H-tetrazol-5-yl]biphenyl-4-yl)methyl]amino}thiazole-5-carboxylic acid] the value was 13.5 nM; for `CCCCN(Cc1ccc(-c2ccccc2-c2nn[nH]n2)cc1)c1ncn(CC)c1C(=O)OC(C)(C)C` [Example 5, tert-Butyl 4-{N-butyl-N-[(2'-[1H-tetrazol-5-yl]biphenyl-4-yl)methyl]amino}-1-(N-ethyl)imidazole-5-carboxylate], 87.1 nM. Take `CCCCN(Cc1ccc(-c2ccccc2-c2nnn[nH]2)cc1)c1nncs1` [Example 12, 2-{N-Butyl-N-[(2'-[1H-tetrazol-5-yl]biphenyl-4-yl)methyl]amino}-1,3,4-thiadiazole]: the Kb is 20 nM. On the same count and under the same terms, the same measure for `CCCCN(Cc1ccc(-c2ccccc2-c2nn[nH]n2)cc1)c1scnc1C(=O)O` [Example 3, 5-{N-Butyl-N-[(2'-[1H-tetrazol-5-yl]biphenyl-4-yl)methyl]amino}thiazole-4-carboxylic acid]: 6.31 nM; for `CCCCN(Cc1ccc(-c2ccccc2-c2nn[nH]n2)cc1)c1cn(CC)cn1` [Example 6, 4-{N-Butyl-N-[(2'-[1H-tetrazol-5-yl]biphenyl-4-yl)methyl]amino}-1-(N-ethyl)imidazole]: 7.59 nM; for `CCCCN(Cc1ccc(-c2ccccc2-c2nn[nH]n2)cc1)c1snnc1C(=O)O` [Example 10, 5-[N-Butyl-N-[[2'-(1H-tetrazol-5-yl)biphenyl-4-yl]methyl]amino]-1,2,3-thiadiazole-4-carboxylic acid]: 4.37 nM. Same read-out and setting: the same measure for `CCCCN(Cc1ccc(-c2ccccc2-c2nnn[nH]2)cc1)c1nc(SC)n(C)c1C(=O)OCC` [Example 1, Ethyl 4-{N-butyl-N-[(2'-[1H-tetrazol-5-yl]biphenyl-4-yl)methyl]amino}-1-methyl-2-(methylthio)imidazole-5-carboxylate]: 105 nM; for `CCCN(Cc1ccc(-c2ccccc2-c2nn[nH]n2)cc1)c1nc(C)c(C(=O)O)s1` [Example 29, 4-Methyl-2-{N-propyl-N-[(2'-[1H-tetrazol-5-yl]biphenyl-4-yl)methyl]amino}thiazole-5-carboxylic acid]: 2.34 nM; for `CCCN(Cc1ccc(-c2ccccc2-c2nn[nH]n2)cc1)c1nn(C)cc1C(=O)O` [Example 14, 1-Methyl-3-{N-propyl-N-[(2'-[1H-tetrazol-5-yl]biphenyl-4-yl)methyl]amino}pyrazole-4-carboxylic acid]: 11.5 nM. Still for that read-out and setting: for `CCCCN(Cc1ccc(-c2ccccc2-c2nnn[nH]2)cc1)c1nnc(C(=O)OCC)s1` [Example 11, Ethyl 2-{N-Butyl-N-[(2'-[1H-tetrazol-5-yl]biphenyl-4-yl)methyl]amino}-1,3,4-thiadiazole-5-carboxylate] the value was 2.95 nM. The molecule `CCCN(Cc1ccc(-c2ccccc2-c2nn[nH]n2)cc1)c1nc(C(F)(F)F)c(C(=O)O)s1` [Example 30, 2-{N-Propyl-N-[(2'-[1H-tetrazol-5-yl]biphenyl-4-yl)methyl]amino}thiazole-4-trifluoromethyl-5-carboxylic acid] gave a Kb of 27.5 nM. On the same count and under the same terms, for `CCCCN(Cc1ccc(-c2ccccc2-c2nnn[nH]2)cc1)c1snnc1C(=O)OCC` [Example 9, Ethyl 5-{N-butyl-N-[(2'-[1H-tetrazol-5-yl]biphenyl-4-yl)methyl]amino}-1,2,3-thiadiazole-4-carboxylate] the value was 16.6 nM; for `CCCc1nc(N(CCC)Cc2ccc(-c3ccccc3-c3nn[nH]n3)cc2)sc1C(=O)O` [Example 31, 2-{N-Propyl-N-[(2'-[1H-tetrazol-5-yl]biphenyl-4-yl)methyl]amino}thiazole-4-propyl-5-carboxylic acid], 37.2 nM.

Test system in a further series: not given
Experiment: not given
Conditions: peptide; cited from earlier work.
Regarding `CNCC(=O)N[C@@H](CCCN=C(N)N)C(=O)N[C@H](C(=O)N[C@@H](Cc1ccc(O)cc1)C(=O)N[C@H](C(=O)N[C@@H](Cc1cnc[nH]1)C(=O)N1CCC[C@H]1C(=O)N[C@@H](C)C(=O)O)C(C)C)C(C)C` [saralasin, [Sar^1,Ala^8] angiotensin II], the oral bioavailability result was “very poor oral bioavailability”.

(Values after patent US5326776A, “Angiotensin II receptor antagonists” (Abbott Laboratories, priority 1993, dated 1994).)
